Source: patent US8741836B2, “Polypeptides” (Novo Nordisk A/S, priority 2011, dated 2014)
Starred links: 1 amine or outer side, 2 acyl side, 3 side chain; linkers in the order of their positions; H or OH if unused. Positions of bridges follow the written chain, without caps; N, C: chain ends. Residues, ends and D or L forms follow the SMILES beside them. *: point of attachment. C20 diacid = O=C(O)CCCCCCCCCCCCCCCCCCC(=O)*; C18 diacid = O=C(O)CCCCCCCCCCCCCCCCC(=O)*; γGlu = O=C(O)[C@H](CCC(=O)[*:2])N[*:1]

Test system: ad libitum fed rat
Assay: Assay (I) efficacy testing on appetite (food intake) using an ad libitum fed rat model
Assay type: in vivo, Sprague Dawley (SD) rats
Excerpt: In the following examples reference is made to the following Assays: • Assay (I)—Experimental protocol for efficacy testing on appetite using an ad libitum fed rat model • ASSAY (II)a—Functional assay—Human calcitonin and amylin receptor assay • ASSAY (II)b—Functional assay—Rat calcitonin and rat amylin receptor assays • ASSAY (III)—ThT fibrillation assays for the assessment of physical stability of protein formulations • ASSAY (IV)—Determination of solubility • ASSAY (V)—Determination of binding to the human amylin receptor • ASSAY (VI)—Determination of the binding to the rat amylin receptor • ASSAY (VII)—Determination of binding to the human calcitonin receptor • ASSAY (VIII)—Determination of binding to the rat calcitonin receptor • ASSAY (IX)—pK—Determination of T½ in mini-pig • ASSAY (X)—pK—Determination of T½ in rat Assay (I)—Experimental protocol for Efficacy Testing on Appetite Using an Ad Libitum Fed Rat Model
Sprague Dawley (SD) rats from Taconic Europe, Denmark are used for the experiments. The rats have a body weight 200-250 g at the start of experiment. The rats arrive at least 10-14 days before start of experiment to allow acclimatization to experimental settings. During this period the animals are handled at least 2 times. After arrival rats are housed individually for one week in a reversed light/dark phase (meaning that lights are off during daytime and on during nighttime) […]. Since rats are normally active and eat their major part of their daily food intake during the dark period, rats are dosed in the morning right before lights are turned off. This set-up results in the lowest data variation and highest test sensitivity. The experiment is conducted in the rats' home cages and rats have free access to food and water throughout the acclimatization period and the experiment period. Each dose of derivative is tested in a group of 5-8 rats. A vehicle group of 6-8 rats is included in each set of testing. Rats are dosed once according to body weight with a 0.01-3 mg/kg solution administered intraperitoneally (ip), orally (po) or subcutaneously (sc). The time of dosing is recorded for each group. After dosing, the rats are returned to their home cages, where they then have access to food and water. The food consumption is recorded individually continuously by on-line registration or manually every hour for 7 hours, and then after 24 h and sometimes 48 h. At the end of the experimental session, the animals are euthanised.
The individual data are recorded in Microsoft excel sheets. Outliers are excluded after applying the Grubbs statistical evaluation test for outliers, and the result is presented graphically using the GraphPad Prism program.

Compound | Food intake reduction 0-24 h 3 nmol/kg (%) (0-24 h) | Food intake reduction 24-48 h 3 nmol/kg (%) (24-48 h) | Food intake reduction 0-24 h 30 nmol/kg (%) (30 nmol/kg, 0-24 h) | Food intake reduction 24-48 h 30 nmol/kg (%) (30 nmol/kg, 24-48 h)
CC[C@H](C)[C@H](NC(=O)[C@@H]1CCCN1C(=O)CNC(=O)[C@H](Cc1ccccc1)NC(=O)[C@H](CC(N)=O)NC(=O)[C@H](CC(N)=O)NC(=O)[C@H](CO)NC(=O)[C@H](CO)NC(=O)[C@H](Cc1c[nH]cn1)NC(=O)[C@H](Cc1c[nH]cn1)NC(=O)[C@H](CC(C)C)NC(=O)[C@H](Cc1ccccc1)NC(=O)[C@H](CCC(=O)O)NC(=O)[C@H](C)NC(=O)[C@H](CC(C)C)NC(=O)[C@H](CCCNC(=N)N)NC(=O)[C@H](CCC(N)=O)NC(=O)[C@@H](NC(=O)[C@H](C)NC(=O)[C@@H]1CSSC[C@H](NC(=O)[C@H](CCCCN)NC(=O)[C@H](CCC(=O)O)NC(=O)CC[C@H](NC(=O)CCCCCCCCCCCCCCCCCCC(=O)O)C(=O)O)C(=O)N[C@@H](CC(N)=O)C(=O)N[C@@H]([C@@H](C)O)C(=O)N[C@@H](C)C(=O)N[C@@H]([C@@H](C)O)C(=O)N1)[C@@H](C)O)C(=O)N[C@@H](CC(C)C)C(=O)N1CCC[C@H]1C(=O)N1CCC[C@H]1C(=O)N[C@H](C(=O)N[C@@H](CC(N)=O)C(=O)N[C@H](C(=O)NCC(=O)N[C@@H](CO)C(=O)N[C@@H](CC(N)=O)C(=O)N[C@H](C(=O)N[C@@H](Cc1ccc(O)cc1)C(N)=O)[C@@H](C)O)C(C)C)[C@@H](C)O [Example 26, N-alpha-[(S)-4-Carboxy-4-(19-carboxynonadecanoylamino)butyryl]-Glu-[Glu14,His17]-pramlintide] ({C20 diacid-γGlu}-EKCNTATCATQRLAEFLHHSSNNFGPILPPTNVGSNTY-NH2; disulfide 3-8 (inferred)) | 46% | 39% |  | 
CC[C@H](C)[C@H](NC(=O)[C@@H]1CCCN1C(=O)CNC(=O)[C@H](Cc1ccccc1)NC(=O)[C@H](CC(N)=O)NC(=O)[C@H](CC(N)=O)NC(=O)[C@H](CO)NC(=O)[C@H](CO)NC(=O)[C@H](Cc1c[nH]cn1)NC(=O)[C@H](Cc1c[nH]cn1)NC(=O)[C@H](CC(C)C)NC(=O)[C@H](Cc1ccccc1)NC(=O)[C@H](CCC(=O)O)NC(=O)[C@H](C)NC(=O)[C@H](CC(C)C)NC(=O)[C@H](CCCNC(=N)N)NC(=O)[C@H](CCC(N)=O)NC(=O)[C@@H](NC(=O)[C@H](C)NC(=O)[C@@H]1CSSC[C@H](NC(=O)[C@H](CCCCN)NC(=O)[C@H](CCC(=O)O)NC(=O)CC[C@H](NC(=O)CCCCCCCCCCCCCCCCC(=O)O)C(=O)O)C(=O)N[C@@H](CC(N)=O)C(=O)N[C@@H]([C@@H](C)O)C(=O)N[C@@H](C)C(=O)N[C@@H]([C@@H](C)O)C(=O)N1)[C@@H](C)O)C(=O)N[C@@H](CC(C)C)C(=O)N1CCC[C@H]1C(=O)N1CCC[C@H]1C(=O)N[C@H](C(=O)N[C@@H](CC(N)=O)C(=O)N[C@H](C(=O)NCC(=O)N[C@@H](CO)C(=O)N[C@@H](CC(N)=O)C(=O)N[C@H](C(=O)N[C@@H](Cc1ccc(O)cc1)C(N)=O)[C@@H](C)O)C(C)C)[C@@H](C)O [Example 42, N-alpha-[(S)-4-Carboxy-4-(17-carboxyheptadecanoylamino)butyryl]-Glu-[Glu14,His17]-pramlintide] ({C18 diacid-γGlu}-EKCNTATCATQRLAEFLHHSSNNFGPILPPTNVGSNTY-NH2; disulfide 3-8) | 45% | 5% |  | 
CC[C@H](C)[C@H](NC(=O)[C@@H]1CCCN1C(=O)CNC(=O)[C@H](Cc1ccccc1)NC(=O)[C@H](CC(N)=O)NC(=O)[C@H](CC(N)=O)NC(=O)[C@H](CO)NC(=O)[C@H](CO)NC(=O)[C@H](Cc1c[nH]cn1)NC(=O)[C@H](Cc1c[nH]cn1)NC(=O)[C@H](CC(C)C)NC(=O)[C@H](Cc1ccccc1)NC(=O)[C@H](CCC(=O)O)NC(=O)[C@H](C)NC(=O)[C@H](CC(C)C)NC(=O)[C@H](CCCNC(=N)N)NC(=O)[C@H](CCC(N)=O)NC(=O)[C@@H](NC(=O)[C@H](C)NC(=O)[C@@H]1CSSC[C@H](NC(=O)[C@H](CCCCN)NC(=O)[C@H](CCC(=O)O)NC(=O)CC[C@H](NC(=O)CCCCCCCCCCCCCCCCCCC(=O)O)C(=O)O)C(=O)N[C@@H](CC(N)=O)C(=O)N[C@@H]([C@@H](C)O)C(=O)N[C@@H](C)C(=O)N[C@@H]([C@@H](C)O)C(=O)N1)[C@@H](C)O)C(=O)N[C@@H](CC(C)C)C(=O)N1CCC[C@H]1C(=O)N1CCC[C@H]1C(=O)N[C@H](C(=O)N[C@@H](CC(N)=O)C(=O)N[C@H](C(=O)NCC(=O)N[C@@H](CO)C(=O)N[C@@H](Cc1c[nH]cn1)C(=O)N[C@H](C(=O)N[C@@H](Cc1ccc(O)cc1)C(N)=O)[C@@H](C)O)C(C)C)[C@@H](C)O [Example 56, N-alpha-[(S)-4-Carboxy-4-(19-carboxynonadecanoylamino)butyryl]-Glu-[Glu14,His17,His35]-pramlintide] ({C20 diacid-γGlu}-EKCNTATCATQRLAEFLHHSSNNFGPILPPTNVGSHTY-NH2; disulfide 3-8) | 46% | 21% |  | 
CC[C@H](C)[C@H](NC(=O)[C@@H]1CCCN1C(=O)CNC(=O)[C@H](Cc1ccccc1)NC(=O)[C@H](CC(N)=O)NC(=O)[C@H](CC(N)=O)NC(=O)[C@H](CO)NC(=O)[C@H](CO)NC(=O)[C@H](Cc1c[nH]cn1)NC(=O)[C@H](Cc1c[nH]cn1)NC(=O)[C@H](CC(C)C)NC(=O)[C@H](Cc1ccccc1)NC(=O)[C@H](CCC(=O)O)NC(=O)[C@H](C)NC(=O)[C@H](CC(C)C)NC(=O)[C@H](CCCNC(=N)N)NC(=O)[C@H](CCC(N)=O)NC(=O)[C@@H](NC(=O)[C@H](C)NC(=O)[C@@H]1CSSC[C@H](NC(=O)[C@H](Cc2c[nH]cn2)NC(=O)CC[C@H](NC(=O)CCCCCCCCCCCCCCCCCCC(=O)O)C(=O)O)C(=O)N[C@@H](CC(N)=O)C(=O)N[C@@H]([C@@H](C)O)C(=O)N[C@@H](C)C(=O)N[C@@H]([C@@H](C)O)C(=O)N1)[C@@H](C)O)C(=O)N[C@@H](CC(C)C)C(=O)N1CCC[C@H]1C(=O)N1CCC[C@H]1C(=O)N[C@H](C(=O)N[C@@H](CC(N)=O)C(=O)N[C@H](C(=O)NCC(=O)N[C@@H](CO)C(=O)N[C@@H](CC(N)=O)C(=O)N[C@H](C(=O)N1CCC[C@H]1C(N)=O)[C@@H](C)O)C(C)C)[C@@H](C)O [Example 84, N-alpha-[(S)-4-Carboxy-4-(19-carboxynonadecanoylamino)butyryl]-[His1,Glu14,His17,Pro37]-pramlintide] ({C20 diacid-γGlu}-HCNTATCATQRLAEFLHHSSNNFGPILPPTNVGSNTP-NH2; disulfide 2-7 (inferred)) | 68% | 67% |  | 
CC[C@H](C)[C@H](NC(=O)[C@@H]1CCCN1C(=O)CNC(=O)[C@H](Cc1ccccc1)NC(=O)[C@H](CC(N)=O)NC(=O)[C@H](CC(N)=O)NC(=O)[C@H](CO)NC(=O)[C@H](CO)NC(=O)[C@H](CCCNC(=N)N)NC(=O)[C@H](Cc1c[nH]cn1)NC(=O)[C@H](CC(C)C)NC(=O)[C@H](Cc1ccccc1)NC(=O)[C@H](CCC(=O)O)NC(=O)[C@H](C)NC(=O)[C@H](CC(C)C)NC(=O)[C@H](CCCNC(=N)N)NC(=O)[C@H](CCC(N)=O)NC(=O)[C@@H](NC(=O)[C@H](C)NC(=O)[C@@H]1CSSC[C@H](NC(=O)[C@H](Cc2c[nH]cn2)NC(=O)CC[C@H](NC(=O)CCCCCCCCCCCCCCCCCCC(=O)O)C(=O)O)C(=O)N[C@@H](CC(N)=O)C(=O)N[C@@H]([C@@H](C)O)C(=O)N[C@@H](C)C(=O)N[C@@H]([C@@H](C)O)C(=O)N1)[C@@H](C)O)C(=O)N[C@@H](CC(C)C)C(=O)N1CCC[C@H]1C(=O)N1CCC[C@H]1C(=O)N[C@H](C(=O)N[C@@H](CC(N)=O)C(=O)N[C@H](C(=O)NCC(=O)N[C@@H](CO)C(=O)N[C@@H](CC(N)=O)C(=O)N[C@H](C(=O)N[C@@H](Cc1ccc(O)cc1)C(N)=O)[C@@H](C)O)C(C)C)[C@@H](C)O [Example 1, N-alpha-[(S)-4-Carboxy-4-(19-carboxynonadecanoylamino)butyryl]-[His1,Glu14,His17,Arg18]-pramlintide] ({C20 diacid-γGlu}-HCNTATCATQRLAEFLHRSSNNFGPILPPTNVGSNTY-NH2; disulfide 2-7 (inferred); C-terminus assumed) | 50% | 45% | 93% | 92%
